How the values were obtained:
[1] = test system: OPM-2 human multiple myeloma cell line; assay: Cell Viability Assay (OPM-2 10 FBS); type: cell-based; details: OPM-2 cells, CellTiter-Glo
Procedure: Cell Viability Assay (OPM-2 10 FBS)
Cells were seeded into 384-well plates at 3000 cells/well density in complete growth medium containing 10% FBS, and incubated for 16 h with serially diluted test compounds in a 37° C. incubator with 5% CO2. Cell viability was tested using CellTiter-Glo® assay (Promega, Madison, WI) according to the manufacturer recommendations. Luminescence was determined using an EnVision® Multilabel plate reader 25 min after the addition of detection reagent. IC50 values were then calculated with Xlfit using a logistical 4-parameter fit model in GraphPad Prism (GraphPad Software, San Diego, CA) or in Genedata Screener® (Genedata, Basel, Switzerland).

[2] = biological target: T1, Mcl-1/Bim interaction, recombinant human Mcl-1 (171-327) (Homo sapiens, UniProt Q07820); assay: Cell free Mcl-1: Bim Affinity Assay (Mcl-1 HTRF); type: binding
T1 construct: made in house
T1 sequence (Q07820 171-327): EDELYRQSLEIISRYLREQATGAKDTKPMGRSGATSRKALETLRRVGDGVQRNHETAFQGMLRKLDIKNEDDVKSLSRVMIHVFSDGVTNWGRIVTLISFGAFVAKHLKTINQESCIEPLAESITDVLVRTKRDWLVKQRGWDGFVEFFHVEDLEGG
Procedure, shortened: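 Read-out is time-resolved FRET after overnight incubation, using a biotin-labelled peptide from human Bim (51-76) as the binding partner; IC50 was derived from competition curves.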

[3] = TR-FRET, 0.1 nM Mcl-1 (171-327), 0.05 nM biotin-Bim (51-76)
[4] = Homo sapiens, OPM-2, 16 h, 16 h
[5] = cell free Mcl-1:Bim TR-FRET, recombinant human Mcl-1 (171-327)
[6] = Homo sapiens, OPM-2, 16 h, 16 h incubation

IC50 [2, 3]	IC50 [1, 4]	IC50 [2, 5]	IC50 [1, 6]	Molecule	IC50 ([1]; 16 h)
	99.3 nM	0.788 nM		C[C@@H]1[C@@H](C)C/C=C/[C@H](OCCN2CCOC[C@@H]2C)[C@@H]2CC[C@H]2CN2C[C@@]3(CCCc4cc(Cl)ccc43)COc3ccc(cc32)C(=O)NS1(=O)=O [Example 534, (1S,3′R,6′R,7′S,8′E,11′S,12′R)-6-chloro-11′,12′-dimethyl-7′-(2-((3S)-3-methyl-4-morpholinyl)ethoxy)-3,4-dihydro-2H,15′H-spiro[naphthalene-1,22′-[20]oxa[13]thia[1,14]diazatetracyclo[14.7.2.0^3,6.0^19,24]pentacosa [8,16,18,24]tetraen]-15′-one 13′,13′-dioxide]	
		3.58 nM		COC(=O)CC[C@]1(C)CC/C=C/[C@H](O)[C@@H]2CC[C@H]2CN2C[C@@]3(CCCc4cc(Cl)ccc43)COc3ccc(cc32)C(=O)NS1(=O)=O (single isomer, unassigned) [Example 561]	8470 nM
0.103 nM			2340 nM	CC[C@@H]1CC/C=C/[C@H](OCC(=O)O)[C@@H]2CC[C@H]2CN2C[C@@]3(CCCc4cc(Cl)ccc43)COc3ccc(cc32)C(=O)NS1(=O)=O [Example 992, (((1S,3′R,6′R,7′S,8′E,12′R)-6-chloro-12′-ethyl-13′,13′-dioxido-15′-oxo-3,4-dihydro-2H-spiro[naphthalene-1,22′-[20]oxa[13]thia[1,14]diazatetracyclo[14.7.2.0^3,6.0^19,24]pentacosa [8,16,18,24]tetraen]-7′-yl)oxy)acetic Acid]	
	968 nM	0.763 nM		O=C1NS(=O)(=O)N(Cc2ncco2)CC/C=C/[C@H](O)[C@@H]2CC[C@H]2CN2C[C@@]3(CCCc4cc(Cl)ccc43)COc3ccc1cc32 [Example 694, (1S,3′R,6′R,7′S,8′E)-6-chloro-7′-hydroxy-12′-(1,3-oxazol-2-ylmethyl)-3,4-dihydro-2H,15′H-spiro[naphthalene-1,22′-[20]oxa[13]thia[1,12,14]triazatetracyclo[14.7.2.0^3,6.0^19,24]pentacosa[8,16,18,24]tetraen]-15′-one 13′,13′-dioxide]	
	202 nM	0.681 nM		C[C@@H]1[C@@H](C)C/C=C/[C@H](OCCNS(C)(=O)=O)[C@@H]2CC[C@H]2CN2C[C@@]3(CCCc4cc(Cl)ccc43)COc3ccc(cc32)C(=O)NS1(=O)=O [Example 735, N-(2-(((1S,3′R,6′R,7′S,8′E,11′S,12′R)-6-chloro-11′,12′-dimethyl-13′, 13′-dioxido-15′-oxo-3,4-dihydro-2H-spiro[naphthalene-1,22′-[20]oxa[13]thia[1,14]diazatetracyclo[14.7.2.0^3,6.0^19,24]pentacosa[8,16,18,24]tetraen]-7′-yl)oxy)ethyl)Methanesulfonamide]	
	1320 nM	2.89 nM		COCCN1CCC/C=C/[C@H](O)[C@@H]2CC[C@H]2CN2C[C@@]3(CCCc4cc(Cl)ccc43)COc3ccc(cc32)C(=O)NS1(=O)=O [Example 665, (1S,3′R,6′R,7′S,8′E)-6-chloro-7′-hydroxy-13′-(2-methoxyethyl)-3,4-dihydro-2H,16′H-spiro[naphthalene-1,23′-[21]oxa[14]thia[1,13,15]triazatetracyclo[15.7.2.0^3,6.0^20,25]hexacosa[8,17,19,25]tetraen]-16′-one 14′,14′-dioxide]	
	134 nM	1.12 nM		C[C@@H]1[C@@H](C)C/C=C/[C@H](OCCN2CCN(S(C)(=O)=O)CC2)[C@@H]2CC[C@H]2CN2C[C@@]3(CCCc4cc(Cl)ccc43)COc3ccc(cc32)C(=O)NS1(=O)=O [Example 734]	
0.377 nM	1060 nM			C[C@@H]1CC/C=C/[C@H](OCc2cnnn2C)[C@@H]2CC[C@H]2CN2C[C@@]3(CCCc4cc(Cl)ccc43)COc3ccc(cc32)C(=O)NS1(=O)=O [Example 416, (1S,3′R,6′R,7′S,8′E,12′R)-6-chloro-12′-methyl-7′-((1-methyl-1H-1,2,3-triazol-5-yl)methoxy)-3,4-dihydro-2H,15′H-spiro[naphthalene-1,22′-[20]oxa[13]thia[1,14]diazatetracyclo[14.7.2.0^3,6.0^19,24]pentacosa [8,16,18,24]tetraen]-15′-one 13′,13′-dioxide]	
1.36 nM			11300 nM	O=C1NS(=O)(=O)C2COCC2CC=CC(O)C2CCC2CN2CC3(CCCc4cc(Cl)ccc43)COc3ccc1cc32 (single isomer, unassigned) [Example 1036]	

The remaining lines, values behind:

Molecule	IC50 [2, 3]	IC50 [1, 4]	IC50 [2, 5]	IC50 [1, 6]	IC50 ([1]; 16 h)
C[C@H]1CCCS(=O)(=O)NC(=O)c2ccc3c(c2)N(C[C@@H]2CC[C@H]2[C@@H](O)C1)C[C@@]1(CCCc2cc(Cl)ccc21)CO3 (single isomer, unassigned) [Example 243]	10.9 nM				12100 nM
C[C@@H]1[C@@H](C)C/C=C/[C@H](OCC(=O)N2CCNC(=O)C2)[C@@H]2CC[C@H]2CN2C[C@@]3(CCCc4cc(Cl)ccc43)COc3ccc(cc32)C(=O)NS1(=O)=O [Example 314, (1S,3′R,6′R,7′S,8′E,11′S,12′R)-6-chloro-11′,12′-dimethyl-7′-(2-oxo-2-(3-oxo-1-piperazinyl)ethoxy)-3,4-dihydro-2H,15′H-spiro[naphthalene-1,22′-[20]oxa[13]thia[1,14]diazatetracyclo[14.7.2.0^3,6.0^19,24]pentacosa [8,16,18,24]tetraen]-15′-one 13′,13′-dioxide]	0.136 nM	2120 nM			
(1S,3′R,6′R,9′R)-6-chloro-9′-methyl-3,4-dihydro-2H,15′H-spiro[naphthalene-1,22′-[20]oxa[13]thia[1,14]diazatetracyclo[14.7.2.0^3,6.0^19,24]pentacosa [16,18,24]trien]-15′-one 13′,13′-dioxide and (1S,3′R,6′R,9′S)-6-chloro-9′-methyl-3,4-dihydro-2H,15′H-spiro[naphthalene-[20]oxa[13]thia[1,14]diazatetracyclo[14.7.2.0^3,6.0^19,24]pentacosa [16,18,24]trien]-15′-one 13′,13′-dioxide [Example 276]	13.2 nM				6410 nM
C[C@@H]1[C@@H](C)C/C=C/[C@H](OCC(=O)N2CC[C@@H](O)C2)[C@@H]2CC[C@H]2CN2C[C@@]3(CCCc4cc(Cl)ccc43)COc3ccc(cc32)C(=O)NS1(=O)=O [Example 311, (1S,3′R,6′R,7′S,8′E,11′S,12′R)-6-chloro-7′-(2-((3R)-3-hydroxy-1-pyrrolidinyl)-2-oxoethoxy)-11′,12′-dimethyl-3,4-dihydro-2H,15′H-spiro[naphthalene-1,22′-[20]oxa[13]thia[1,14]diazatetracyclo[14.7.2.0^3,6.0^19,24]pentacosa [8,16,18,24]tetraen]-15′-one 13′,13′-dioxide]	0.138 nM	1400 nM			
Cc1nnc(CO[C@H]2/C=C/CC[C@@H](C)S(=O)(=O)NC(=O)c3ccc4c(c3)N(C[C@@H]3CC[C@H]32)C[C@@]2(CCCc3cc(Cl)ccc32)CO4)o1 [Example 412, (1S,3′R,6′R,7′S,8′E,12′R)-6-chloro-12′-methyl-7′-((5-methyl-1,3,4-oxadiazol-2-yl)methoxy)-3,4-dihydro-2H,15′H-spiro[naphthalene-1,22′-[20]oxa[13]thia[1,14]diazatetracyclo[14.7.2.0^3,6.0^19,24]pentacosa [8,16,18,24]tetraen]-15′-one 13′,13′-dioxide]	0.267 nM	325 nM			
C[C@H]1C/C=C/[C@H](O)[C@@H]2CC[C@H]2CN2C[C@@]3(CCCc4cc(Cl)ccc43)COc3ccc(cc32)C(=O)NS(=O)(=O)N1CCN1CCOCC1 [Example 66, (1S,3′R,6′R,7′S,8′E,11′S)-6-chloro-7′-hydroxy-11′-methyl-12′-(2-(4-morpholinyl)ethyl)-3,4-dihydro-2H,15′H-spiro[naphthalene-1,22′-[20]oxa[13]thia[1,12,14]triazatetracyclo[14.7.2.0^3,6.0^19,24]pentacosa[8,16,18,24]tetraen]-15′-one 13′,13′-dioxide]	2.31 nM	492 nM			
CO[C@H]1/C=C/CC[C@@H](C(=O)N(C)C)S(=O)(=O)NC(=O)c2ccc3c(c2)N(C[C@@H]2CC[C@H]21)C[C@@]1(CCCc2cc(Cl)ccc21)CO3 (single isomer, unassigned) [Example 452]	0.277 nM				775 nM
CC(C)C[C@H](O[C@H]1/C=C/C[C@H](C)[C@@H](C)S(=O)(=O)NC(=O)c2ccc3c(c2)N(C[C@@H]2CC[C@H]21)C[C@@]1(CCCc2cc(Cl)ccc21)CO3)C(=O)N(C)C (single isomer, unassigned) [Example 429]	4.15 nM				1320 nM
CC(=O)O[C@H]1/C=C/C[C@@H]2CCCN2S(=O)(=O)NC(=O)c2ccc3c(c2)N(C[C@@H]2CC[C@H]21)C[C@@]1(CCCc2cc(Cl)ccc21)CO3 (single isomer, unassigned) [Example 346]	1.9 nM	2270 nM			
COCCO[C@H]1/C=C/C[C@H](C)[C@H](c2ccccc2)S(=O)(=O)NC(=O)c2ccc3c(c2)N(C[C@@H]2CC[C@H]21)C[C@@]1(CCCc2cc(Cl)ccc21)CO3 (single isomer, unassigned) [Example 670]			2.48 nM		1000 nM
O=C1NS(=O)(=O)[C@H]2CCCC[C@@H]2CCC[C@H](O)[C@@H]2CC[C@H]2CN2C[C@@]3(CCCc4cc(Cl)ccc43)COc3ccc1cc32 (single isomer, unassigned) [Example 334]	6.92 nM				2660 nM
